Test results: US20130131043A1, “PYRAZOLE COMPOUNDS AS JAK INHIBITORS” (priority 2010, published 2013)

Tests used:
JAK2 = biological target: T1, JAK2 (Homo sapiens, UniProt O60674); assay: Kinobeads assay, JAK2 (competition binding in cell lysate, dot blot detection); settings: mixed Molt4/Ramos lysate
T1 construct: endogenous in cells; host or cells: Molt4 (ATCC CRL-1582) and Ramos (ATCC CRL-1596) cell lysate; mixed Molt4/Ramos lysate 1:2
Protocol: (§1) The compounds of the present invention as described in the previous examples were tested in a Kinobeads™ assay as described for ZAP-70 (WO-A 2007/137867). Briefly, test compounds (at various concentrations) and the affinity matrix with the immobilized aminopyrido-pyrimidine ligand 24 were added to cell lysate aliquots and allowed to bind to the proteins in the lysate sample. After the incubation time the beads with captured proteins were separated from the lysate. Bound proteins were then eluted and the presence of JAK2 and JAK3 was detected and quantified using specific antibodies in a dot blot procedure and the Odyssey infrared detection system. Dose response curves for individual kinases were generated and IC50 values calculated. Kinobeads™ assays for ZAP-70 (WO-A 2007/137867) and for kinase selectivity profiling (WO-A 2006/134056) have been previously described.
(§2) 5×DP buffer: 250 mM Tris-HCl pH 7.4, 25% Glycerol, 7.5 mM MgCl2, 750 mM NaCl, 5 mM Na3VO4; filter the 5×DP buffer through a 0.22 μm filter and store in aliquots at −80° C. The 5×DP buffer is diluted with H2O to 1×DP buffer containing 1 mM DTT and 25 mM NaF.
(§3) Stock solutions of test compounds were prepared in DMSO. In a 96 well plate 30 μL solution of diluted test compounds at 5 mM in DMSO were prepared. Starting with this solution a 1:3 dilution series (9 steps) was prepared. For control experiments (no test compound) a buffer containing 2% DMSO was used.
(§4) Molt4 cells (ATCC catalogue number CRL-1582) and Ramos cells (ATCC catalogue number CRL-1596) were grown in 1 L Spinner flasks (Integra Biosciences, #182101) in suspension in RPMI 1640 medium (Invitrogen, #21875-034) supplemented with 10% Fetal Bovine Serum (Invitrogen) at a density between 0.15×10^6 and 1.2×10^6 cells/mL. Cells were harvested by centrifugation, washed once with 1×PBS buffer (Invitrogen, #14190-094) and cell pellets were frozen in liquid nitrogen and subsequently stored at −80° C. Cells were homogenized in a Potter S homogenizer in lysis buffer: 50 mM Tris-HCl, 0.8% NP40, 5% glycerol, 150 mM NaCl, 1.5 mM MgCl2, 25 mM NaF, 1 mM sodium vanadate, 1 mM DTT, pH 7.5. One complete EDTA-free tablet (protease inhibitor cocktail, Roche Diagnostics, 1873580) per 25 mL buffer was added. The material was dounced 10 times using a mechanized POTTER S, transferred to 50 mL falcon tubes, incubated for 30 minutes on ice and spun down for 10 minutes at 20,000 g at 4° C. (10,000 rpm in Sorvall SLA600, precooled). The supernatant was transferred to an ultracentrifuge (UZ)-polycarbonate tube (Beckmann, 355654) and spun for 1 hour at 100.000 g at 4° C. (33.500 rpm in Ti50.2, precooled). The supernatant was transferred again to a fresh 50 mL falcon tube, the protein concentration was determined by a Bradford assay (BioRad) and samples containing 50 mg of protein per aliquot were prepared. The samples were immediately used for experiments or frozen in liquid nitrogen and stored frozen at −80° C.
(§5) Cell lysate (approximately 50 mg protein per plate) was thawed in a water bath at room temperature and then stored on ice. To the thawed cell lysate 1×DP 0.8% NP40 buffer containing protease inhibitors (1 tablet for 25 mL buffer; EDTA-free protease inhibitor cocktail; Roche Diagnostics 1873580) was added in order to reach a final protein concentration of 10 mg/mL total protein. The diluted cell lysate was stored on ice. Mixed Molt4/Ramos lysate was prepared by combining one volume of Molt4 lysate and two volumes of Ramos lysate (ratio 1:2).
(§6) Plates were sealed and incubated for 3 hours in a cold room on a plate shaker (Heidolph tiramax 1000) at 750 rpm. Afterwards the plate was washed 3 times with 230 μL washing buffer (1×DP 0.4% NP40). The filter plate was placed on top of a collection plate (Greiner bio-one, PP-microplate 96 well V-shape, 65120) and the beads were then eluted with 20 μL of sample buffer (100 mM Tris, pH 7.4, 4% SDS, 0.00025% bromophenol blue, 20% glycerol, 50 mM DTT). […]

JAK3 = biological target: T2, JAK3 (Homo sapiens, UniProt P52333); assay: Kinobeads assay, JAK3 (competition binding in cell lysate, dot blot detection); settings: mixed Molt4/Ramos lysate
T2 construct: endogenous in cells; host or cells: Molt4 (ATCC CRL-1582) and Ramos (ATCC CRL-1596) cell lysate; mixed Molt4/Ramos lysate 1:2
T2 sequence (P52333 1-1124): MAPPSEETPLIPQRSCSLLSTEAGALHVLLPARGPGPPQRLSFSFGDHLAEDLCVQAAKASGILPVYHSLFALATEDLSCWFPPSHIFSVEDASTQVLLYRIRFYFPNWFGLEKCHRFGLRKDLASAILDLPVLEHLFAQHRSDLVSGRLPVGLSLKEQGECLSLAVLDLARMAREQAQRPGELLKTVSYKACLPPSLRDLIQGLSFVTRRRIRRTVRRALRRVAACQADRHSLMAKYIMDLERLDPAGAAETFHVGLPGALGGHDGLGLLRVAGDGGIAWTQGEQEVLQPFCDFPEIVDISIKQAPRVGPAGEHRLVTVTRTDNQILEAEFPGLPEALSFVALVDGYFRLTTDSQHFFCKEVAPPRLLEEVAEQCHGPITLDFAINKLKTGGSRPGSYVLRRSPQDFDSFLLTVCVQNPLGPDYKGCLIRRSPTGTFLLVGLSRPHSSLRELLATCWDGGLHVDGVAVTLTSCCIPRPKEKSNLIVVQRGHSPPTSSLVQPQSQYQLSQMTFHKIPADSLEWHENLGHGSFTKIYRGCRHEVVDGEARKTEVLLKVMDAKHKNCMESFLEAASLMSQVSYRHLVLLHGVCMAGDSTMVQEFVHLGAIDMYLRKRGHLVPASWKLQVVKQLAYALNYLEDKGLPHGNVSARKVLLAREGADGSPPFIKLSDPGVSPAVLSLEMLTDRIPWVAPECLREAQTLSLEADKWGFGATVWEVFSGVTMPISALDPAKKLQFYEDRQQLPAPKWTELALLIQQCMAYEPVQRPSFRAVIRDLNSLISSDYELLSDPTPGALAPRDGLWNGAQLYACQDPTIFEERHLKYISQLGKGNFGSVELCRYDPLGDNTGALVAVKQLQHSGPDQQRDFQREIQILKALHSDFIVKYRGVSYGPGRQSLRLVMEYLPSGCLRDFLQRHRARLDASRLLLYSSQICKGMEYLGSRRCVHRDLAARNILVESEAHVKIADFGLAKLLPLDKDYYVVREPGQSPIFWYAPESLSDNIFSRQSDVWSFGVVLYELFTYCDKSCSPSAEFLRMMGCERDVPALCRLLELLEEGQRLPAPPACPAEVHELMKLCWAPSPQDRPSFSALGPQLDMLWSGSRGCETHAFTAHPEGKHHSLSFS
Protocol: as §1, §2, §3, §4, §5, §6

T1 sequence (O60674 whole entry): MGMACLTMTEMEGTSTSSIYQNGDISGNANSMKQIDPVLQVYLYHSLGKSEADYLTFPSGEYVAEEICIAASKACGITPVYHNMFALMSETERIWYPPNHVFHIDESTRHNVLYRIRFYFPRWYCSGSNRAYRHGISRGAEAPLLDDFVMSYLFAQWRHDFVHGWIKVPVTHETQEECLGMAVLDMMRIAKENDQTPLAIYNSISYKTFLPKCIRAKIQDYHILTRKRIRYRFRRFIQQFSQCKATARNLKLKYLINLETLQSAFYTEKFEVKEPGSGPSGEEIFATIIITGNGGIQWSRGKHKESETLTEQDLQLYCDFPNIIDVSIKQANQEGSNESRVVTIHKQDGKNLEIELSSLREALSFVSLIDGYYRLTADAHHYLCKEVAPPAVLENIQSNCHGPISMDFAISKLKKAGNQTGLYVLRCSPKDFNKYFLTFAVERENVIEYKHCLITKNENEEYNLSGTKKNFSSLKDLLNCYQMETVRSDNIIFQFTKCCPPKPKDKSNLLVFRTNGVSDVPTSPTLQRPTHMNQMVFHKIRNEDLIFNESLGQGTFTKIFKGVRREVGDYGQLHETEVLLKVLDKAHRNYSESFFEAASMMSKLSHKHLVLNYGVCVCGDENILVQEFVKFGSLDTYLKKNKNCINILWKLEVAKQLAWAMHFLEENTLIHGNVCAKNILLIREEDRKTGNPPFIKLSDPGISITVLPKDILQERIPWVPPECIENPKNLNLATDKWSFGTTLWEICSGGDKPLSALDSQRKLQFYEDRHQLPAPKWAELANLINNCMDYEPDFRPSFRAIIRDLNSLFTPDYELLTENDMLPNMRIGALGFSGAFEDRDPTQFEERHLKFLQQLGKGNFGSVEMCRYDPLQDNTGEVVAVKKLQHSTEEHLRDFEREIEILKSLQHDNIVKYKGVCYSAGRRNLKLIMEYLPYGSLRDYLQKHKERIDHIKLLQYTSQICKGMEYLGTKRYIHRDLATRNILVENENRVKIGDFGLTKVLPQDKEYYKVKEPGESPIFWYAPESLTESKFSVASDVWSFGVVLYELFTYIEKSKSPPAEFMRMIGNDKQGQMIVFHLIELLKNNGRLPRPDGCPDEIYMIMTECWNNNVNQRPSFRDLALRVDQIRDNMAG

Row | IC50 (JAK2) | IC50 (JAK3) | Compound
1 | 1000 to 10000 nM | 100 to 1000 nM | CC1CCC(n2ncc3cnc(Nc4cnn(C)c4)nc32)C1 (mixture of isomers) [Example 15, N-(1-Methyl-1H-pyrazol-4-yl)-1-(3-methylcyclopentyl)-1H-pyrazolo[3,4-d]pyrimidin-6-amine]
2 | 1000 to 10000 nM | < 100 nM | C[C@H]1CCCC[C@@H]1n1ncc2cnc(Nc3cnn(C)c3)nc21 (racemic) [Example 7, Rac-trans-N-(1-methyl-1H-pyrazol-4-yl)-1-(2-methylcyclohexyl)-1H-pyrazolo[3,4-d]pyrimidin-6-amine]
3 | 1000 to 10000 nM | 100 to 1000 nM | C[C@H]1CCCC[C@H]1n1ncc2cnc(Nc3cnn(C)c3)nc21 (racemic) [Example 11, Rac-cis-N-(1-methyl-1H-pyrazol-4-yl)-1-(2-methylcyclohexyl)-1H-pyrazolo[3,4-d]pyrimidin-6-amine]
4 | 1000 to 10000 nM | < 100 nM | C[C@H]1CCC[C@H](n2ncc3cnc(Nc4cnn(C)c4)nc32)C1 (racemic) [Example 19, Rac-trans-N-(1-methyl-1H-pyrazol-4-yl)-1-(3-methylcyclohexyl)-1H-pyrazolo[3,4-d]pyrimidin-6-amine]
5 | 1000 to 10000 nM | < 100 nM | C[C@H]1CCCC[C@@H]1n1ncc2cnc(Nc3cnn(CCO)c3)nc21 (racemic) [Example 50, Rac-trans-2-(4-((1-(2-methylcyclohexyl)-1H-pyrazolo[3,4-d]pyrimidin-6-yl)amino)-1H-pyrazol-1-yl)ethanol]
6 | > 10000 nM | 100 to 1000 nM | Cn1cc(Nc2ncc3cnn(C4CCCCC4)c3n2)cn1 [Example 8, 1-cyclohexyl-N-(1-methyl-1H-pyrazol-4-yl)-1H-pyrazolo[3,4-d]pyrimidin-6-amine]
7 | > 10000 nM | 1000 to 10000 nM | Cn1cc(Nc2ncc3cnn(C4CCNCC4)c3n2)cn1 [Example 12, N-(1-methyl-1H-pyrazol-4-yl)-1-(piperidin-4-yl)-1H-pyrazolo[3,4-d]pyrimidin-6-amine]
8 | > 10000 nM | 100 to 1000 nM | CC1CCCC(n2ncc3cnc(Nc4cnn(C)c4)nc32)C1 (stereo not drawn) [Example 13, N-(1-methyl-1H-pyrazol-4-yl)-1-(3-methylcyclohexyl)-1H-pyrazolo[3,4-d]pyrimidin-6-amine]
9 | > 10000 nM | 100 to 1000 nM | CC1CCCC1n1ncc2cnc(Nc3cnn(C)c3)nc21 (stereo not drawn) [Example 14, N-(1-Methyl-1H-pyrazol-4-yl)-1-(2-methylcyclopentyl)-1H-pyrazolo[3,4-d]pyrimidin-6-amine]
10 | 1000 to 10000 nM | < 100 nM | Cn1cc(Nc2ncc3cnn(C4CCCCCC4)c3n2)cn1 [Example 20, 1-Cycloheptyl-N-(1-methyl-1H-pyrazol-4-yl)-1H-pyrazolo[3,4-d]pyrimidin-6-amine]

Further lines, the compound ahead of its results:

Row | Compound | IC50 (JAK2) | IC50 (JAK3)
11 | Cn1cc(Nc2ncc3cnn(CC4CCCN(S(C)(=O)=O)C4)c3n2)cn1 (stereo not drawn) [Example 1] | 1000 to 10000 nM | < 100 nM
12 | Cn1cc(Nc2ncc3cnn(CCCNS(C)(=O)=O)c3n2)cn1 [Example 2, N-(3-(6-(1-methyl-1H-pyrazol-4-ylamino)-1H-pyrazolo[3,4-d]pyrimidin-1-yl)propyl)methanesulfonamide] | 1000 to 10000 nM | 100 to 1000 nM
13 | Cn1cc(Nc2ncc3cnn(C4CCN(S(C)(=O)=O)CC4)c3n2)cn1 [Example 3, N-(1-methyl-1H-pyrazol-4-yl)-1-(1-(methylsulfonyl)piperidin-4-yl)-1H-pyrazolo[3,4-d]pyrimidin-6-amine] | 1000 to 10000 nM | 100 to 1000 nM
14 | CS(=O)(=O)N1CCCC(Cn2ncc3cnc(Nc4cnn(CC(F)F)c4)nc32)C1 (stereo not drawn) [Example 4, N-(1-(2,2-difluoroethyl)-1H-pyrazol-4-yl)-1-((1-(methylsulfonyl)piperidin-3-yl)methyl)-1H-pyrazolo[3,4-d]pyrimidin-6-amine] | 1000 to 10000 nM | < 100 nM
15 | Cn1cc(Nc2ncc3cnn(CC4CCCNC4)c3n2)cn1 (stereo not drawn) [Example 5, N-(1-methyl-1H-pyrazol-4-yl)-1-(piperidin-3-ylmethyl)-1H-pyrazolo[3,4-d]pyrimidin-6-amine] | 1000 to 10000 nM | 100 to 1000 nM
16 | CN1CCCC(Cn2ncc3cnc(Nc4cnn(C)c4)nc32)C1 (stereo not drawn) [Example 6, N-(1-methyl-1H-pyrazol-4-yl)-1-((1-methylpiperidin-3-yl)methyl)-1H-pyrazolo[3,4-d]pyrimidin-6-amine] | 1000 to 10000 nM | < 100 nM
17 | Cn1cc(Nc2ncc3cnn(C4CCOCC4)c3n2)cn1 [Example 9, N-(1-methyl-1H-pyrazol-4-yl)-1-(tetrahydro-2H-pyran-4-yl)-1H-pyrazolo[3,4-d]pyrimidin-6-amine] | > 10000 nM | 100 to 1000 nM
18 | Cn1cc(Nc2ncc3cnn(C4CCCNC4)c3n2)cn1 (stereo not drawn) [Example 10, N-(1-methyl-1H-pyrazol-4-yl)-1-(piperidin-3-yl)-1H-pyrazolo[3,4-d]pyrimidin-6-amine] | > 10000 nM | 1000 to 10000 nM
19 | Cn1cc(Nc2ncc3cnn(CC4CCCCC4)c3n2)cn1 [Example 16, 1-(Cyclohexylmethyl)-N-(1-methyl-M-pyrazol-4-yl)-1H-pyrazolo[3,4-d]pyrimidin-6-amine] | 1000 to 10000 nM | < 100 nM
20 | CC(C1CCCCC1)n1ncc2cnc(Nc3cnn(C)c3)nc21 (stereo not drawn) [Example 17, 1-(1-Cyclohexylethyl)-N-(1-methyl-M-pyrazol-4-yl)-1H-pyrazolo[3,4-d]pyrimidin-6-amine] | > 10000 nM | 100 to 1000 nM
21 | CCC(C1CCCCC1)n1ncc2cnc(Nc3cnn(C)c3)nc21 (stereo not drawn) [Example 18, 1-(1-Cyclohexylpropyl)-N-(1-methyl-M-pyrazol-4-yl)-1H-pyrazolo[3,4-c]pyrimidin-6-amine] | > 10000 nM | 100 to 1000 nM
